According to patent US11046680B1, “Heteroaryl-substituted triazoles as APJ receptor agonists” (priority 2016, dated 2021):

Target: human APJ receptor (Homo sapiens (Human), UniProt P35414)
Experiment: biochemical
Format: biochemical
Settings: [35S]GTPγS binding, CHO membranes expressing human APJ receptor; read-out: Activity hAPJ SPA EC50 IP
Procedure, shortened: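 GTPγS binding on membranes from CHO cells stably expressing FLAG-tagged human APJ, with optimized GDP, MgCl2 and NaCl; incubated 90 min at RT before imaging read-out.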

Chain of human APJ receptor (P35414 whole entry): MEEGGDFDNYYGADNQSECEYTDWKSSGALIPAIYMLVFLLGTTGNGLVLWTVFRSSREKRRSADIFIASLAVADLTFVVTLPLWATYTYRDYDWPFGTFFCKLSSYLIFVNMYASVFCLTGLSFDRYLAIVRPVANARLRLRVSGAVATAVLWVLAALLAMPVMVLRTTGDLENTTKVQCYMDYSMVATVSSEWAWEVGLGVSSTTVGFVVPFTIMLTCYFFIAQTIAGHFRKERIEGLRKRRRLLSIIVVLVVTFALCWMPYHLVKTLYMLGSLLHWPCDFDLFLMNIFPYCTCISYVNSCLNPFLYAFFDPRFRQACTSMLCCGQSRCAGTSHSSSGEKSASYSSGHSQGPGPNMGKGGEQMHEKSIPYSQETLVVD

| Compound | EC50 [nM] |
| --- | --- |
| COc1ncnc(OC)c1-n1c(NS(=O)(=O)[C@@H](C)[C@H](C)c2ccc(Cl)cn2)nnc1-c1cnn(C)c1 [Example 535.0, (2S,3R)-3-(5-chloro-2-pyridinyl)-N-(4-(4,6-dimethoxy-5-pyrimidinyl)-5-(1-methyl-1H-pyrazol-4-yl)-4H-1,2,4-triazol-3-yl)-2-butanesulfonamide] | 0.66 |
| CO[C@H](c1ncc(Cl)cn1)[C@H](C)S(=O)(=O)Nc1nnc(-c2n[nH]c3c2CCC3)n1C1(C)CCC1 [Example 492.0, (1R,2S)-1-(5-chloropyrimidin-2-yl)-1-methoxy-N-(4-(1-methylcyclobutyl)-5-(1,4,5,6-tetrahydrocyclopenta[c]pyrazol-3-yl)-4H-1,2,4-triazol-3-yl)propane-2-sulfonamide] | 34 |
| CCOC(=O)c1ccc(OC)c(-n2c(NS(=O)(=O)CCc3ccc(Cl)cc3)nnc2-c2cccs2)c1 [Example 28.0, Ethyl 3-(3-(2-(4-chlorophenyl)ethylsulfonamido)-5-(thiophen-2-yl)-4H-1,2,4-triazol-4-yl)-4-methoxybenzoate] | 6 |
| (2R,3S)-N-(4-(2,6-dimethoxyphenyl)-5-(1-methyl-1H-pyrazol-3-yl)-4H-1,2,4-triazol-3-yl)-3-(5-methyl-2-pyrazinyl)-2-butanesulfonamide and (2S,3R)-N-(4-(2,6-dimethoxyphenyl)-5-(1-methyl-1H-pyrazol-3-yl)-4H-1,2,4-triazol-3-yl)-3-(5-methyl-2-pyrazinyl)-2-butanesulfonamide [Example 279.0] | 2.8 |
| COc1cccc(OC)c1-n1c(NS(=O)(=O)[C@@H](C)[C@H](OC)c2ncc(Cl)cn2)nnc1-c1cc(C)[nH]n1 [Example 344.0, (1R,2S)-1-(5-chloro-2-pyrimidinyl)-N-(4-(2,6-dimethoxyphenyl)-5-(5-methyl-1H-pyrazol-3-yl)-4H-1,2,4-triazol-3-yl)-1-methoxy-2-propanesulfonamide] | 0.63 |
| COc1cccc(OC)c1-n1c(NS(=O)(=O)[C@@H](C)[C@H](C)c2ncc(C)cn2)nnc1-c1ccn(C)n1 [Example 201.0, (2S,3R)-N-(4-(2,6-dimethoxyphenyl)-5-(1-methyl-1H-pyrazol-3-yl)-4H-1,2,4-triazol-3-yl)-3-(5-methyl-2-pyrimidinyl)-2-butanesulfonamide] | 0.93 |
| COCC1(n2c(NS(=O)(=O)[C@@H](C)[C@H](OC)c3ncc(Cl)cn3)nnc2-c2cnn3ccccc23)CC1 [Example 509.0, (1R,2S)-1-(5-chloropyrimidin-2-yl)-1-methoxy-N-(4-(1-(methoxymethyl)cyclopropyl)-5-(pyrazolo[1,5-a]pyridin-3-yl)-4H-1,2,4-triazol-3-yl)propane-2-sulfonamide] | 4.1 |
| COc1cccc(OC)c1-n1c(NS(=O)(=O)CCc2ccc(Cl)cc2)nnc1-c1cc(C)on1 [Example 145.0, 2-(4-chlorophenyl)-N-(4-(2,6-dimethoxyphenyl)-5-(5-methylisoxazol-3-yl)-4H-1,2,4-triazol-3-yl)ethanesulfonamide] | 71 |
| (R)-N-(4-(2,6-dimethoxyphenyl)-5-(1,5-dimethyl-1H-pyrazol-3-yl)-4H-1,2,4-triazol-3-yl)-1-(5-fluoropyrimidin-2-yl)propane-2-sulfonamide and (S)-N-(4-(2,6-dimethoxyphenyl)-5-(1,5-dimethyl-1H-pyrazol-3-yl)-4H-1,2,4-triazol-3-yl)-1-(5-fluoropyrimidin-2-yl)propane-2-sulfonamide [Example 46.0] | 31 |
| COc1ccc(N2CCC2=O)cc1-n1c(NS(=O)(=O)CCc2ccc(Cl)cc2)nnc1-c1cccs1 [Example 126.0, 2-(4-Chlorophenyl)-N-(4-(2-methoxy-5-(2-oxo-1-azetidinyl)phenyl)-5-(2-thiophenyl)-4H-1,2,4-triazol-3-yl)ethanesulfonamide] | 11 |
| COc1cccc(OC)c1-n1c(NS(=O)(=O)[C@@H](C)[C@H](C)c2ncc(C)cn2)nnc1-c1ccn(C(F)F)n1 [Example 198.0, (2S,3R)-N-(5-(1-(difluoromethyl)-1H-pyrazol-3-yl)-4-(2,6-dimethoxyphenyl)-4H-1,2,4-triazol-3-yl)-3-(5-methyl-2-pyrimidinyl)-2-butanesulfonamide] | 0.2 |
| COc1cnc([C@H](C)[C@@H](C)S(=O)(=O)Nc2nnc(-c3ccn(C)n3)n2-c2c(OC)cccc2OC)cn1 [Example 301.0, (2R,3S)-N-(4-(2,6-dimethoxyphenyl)-5-(1-methyl-1H-pyrazol-3-yl)-4H-1,2,4-triazol-3-yl)-3-(5-methoxy-2-pyrazinyl)-2-butanesulfonamide] | 11 |
| COc1cccc(OC)c1-n1c(NS(=O)(=O)[C@@H](C)[C@@H](OC(C)C)c2ncc(C)cn2)nnc1-c1cnn2c1CCC2 [Example 446.0, (1S,2S)-N-(5-(5,6-dihydro-4H-pyrrolo[1,2-b]pyrazol-3-yl)-4-(2,6-dimethoxyphenyl)-4H-1,2,4-triazol-3-yl)-1-isopropoxy-1-(5-methylpyrimidin-2-yl)propane-2-sulfonamide] | 0.74 |
| COCC1(n2c(NS(=O)(=O)[C@@H](C)[C@H](OC)c3ncc(Cl)cn3)nnc2-c2n[nH]c3ccc(C)cc23)CC1 [Example 493.0, (1R,2S)-1-(5-chloropyrimidin-2-yl)-1-methoxy-N-(4-(1-(methoxymethyl)cyclopropyl)-5-(5-methyl-1H-indazol-3-yl)-4H-1,2,4-triazol-3-yl)propane-2-sulfonamide] | 43 |
| COc1cccc(OC)c1-n1c(NS(=O)(=O)[C@@H](C)[C@H](OC)c2ncc(C)cn2)nnc1-c1ccon1 [Example 90.0, (1R,2S)-N-(4-(2,6-dimethoxyphenyl)-5-(isoxazol-3-yl)-4H-1,2,4-triazol-3-yl)-1-methoxy-1-(5-methylpyrimidin-2-yl)propane-2-sulfonamide] | 33 |
| COc1cccc(OC)c1-n1c(NS(=O)(=O)[C@@H](C)[C@H](C)c2ncc(Cl)cn2)nnc1-c1cnn2c1CCC2 [Example 445.0, (2S,3R)-3-(5-chloropyrimidin-2-yl)-N-(5-(5,6-dihydro-4H-pyrrolo[1,2-b]pyrazol-3-yl)-4-(2,6-dimethoxyphenyl)-4H-1,2,4-triazol-3-yl)butane-2-sulfonamide] | 0.089 |
| COCC[C@@H]([C@H](C)c1ncc(F)cn1)S(=O)(=O)Nc1nnc(-c2nc(C)cs2)n1-c1c(OC)cccc1OC (single isomer, unassigned) [Example 19.0] | 6.3 |
| COc1ccc(NCCO)cc1-n1c(NS(=O)(=O)CCc2ccc(Cl)cc2)nnc1-c1cccs1 [Example 251.0, 2-(4-chlorophenyl)-N-(4-(5-((2-hydroxyethyl)amino)-2-methoxyphenyl)-5-(2-thiophenyl)-4H-1,2,4-triazol-3-yl)ethanesulfonamide] | 460 |
| COc1cccc(OC)c1-n1c(NS(=O)(=O)[C@@H]2CCCN(c3ncc(F)cn3)C2)nnc1-c1ccn(C)n1 (single isomer, unassigned) [Example 261.0, (3R)-N-(4-(2,6-dimethoxyphenyl)-5-(1-methyl-1H-pyrazol-3-yl)-4H-1,2,4-triazol-3-yl)-1-(5-fluoro-2-pyrimidinyl)-3-piperidinesulfonamide or (3S)-N-(4-(2,6-dimethoxyphenyl)-5-(1-methyl-1H-pyrazol-3-yl)-4H-1,2,4-triazol-3-yl)-1-(5-fluoro-2-pyrimidinyl)-3-piperidinesulfonamide] | 190 |
